Results taken from paper PMC3199943, “Screening the MayBridge Rule of 3 Fragment Library for Compounds That Interact with the Trypanosoma brucei myo-Inositol-3-Phosphate Synthase and/or Show Trypanocidal Activity” (Molecular Biology International, 2011).
Where two headings read alike, the source gives them in different places.

Tests used:
[1] = target: T1, TbINO1 (Trypanosoma brucei brucei, UniProt Q5QQ46); assay: biochemical; assay type: binding
T1 sequence (Q5QQ46 1-528): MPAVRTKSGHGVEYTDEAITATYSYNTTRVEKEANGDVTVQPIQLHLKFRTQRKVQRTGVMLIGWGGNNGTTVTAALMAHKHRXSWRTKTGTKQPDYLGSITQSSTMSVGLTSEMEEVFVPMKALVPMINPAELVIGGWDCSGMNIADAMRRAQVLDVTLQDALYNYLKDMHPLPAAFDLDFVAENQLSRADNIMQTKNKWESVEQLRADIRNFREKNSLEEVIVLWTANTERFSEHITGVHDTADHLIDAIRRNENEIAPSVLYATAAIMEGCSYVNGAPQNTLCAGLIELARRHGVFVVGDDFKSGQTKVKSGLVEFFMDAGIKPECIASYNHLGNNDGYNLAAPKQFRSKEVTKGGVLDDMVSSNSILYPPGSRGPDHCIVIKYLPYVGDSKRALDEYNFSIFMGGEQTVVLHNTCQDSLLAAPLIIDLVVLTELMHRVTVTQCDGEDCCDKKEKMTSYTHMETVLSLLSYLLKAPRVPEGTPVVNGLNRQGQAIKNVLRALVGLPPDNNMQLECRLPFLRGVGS

[2] = tested on: HeLa cells; assay: cells; details: for viability at 500 µM / CC50: Homo sapiens, HeLa; for viability at 500 µM: 65 h; for CC50: read-out: HeLa ED50; for HeLa Cells Alamar Blue: Supplementary Table 1, compound 0.5 mM, percentage of controls, mean ± SD (n=3) or SE (n=2)
Procedure, shortened: (§1)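 Seed HeLa/A549 at 2 × 10^4 cells/well in DMEM/10% FCS/2 mM L-Gln; treat ~65 h; add Alamar Blue, 5 h more.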

[3] = tested on: A549 cells; assay: Cytotoxicity against A549 cells, Alamar Blue; assay type: cell-based; details: Supplementary Table 1, compound 0.5 mM, percentage of controls (n=1); for viability at 500 µM: Homo sapiens, A549, 65 h
Procedure, shortened: as §1

[4] = read-out: Tb Ino1 Tm Shift [˚C]
[5] = read-out: HeLa Cells Alamar Blue
[6] = read-out: HeLa Cells Alamar Blue (% survival)
[7] = Supplementary Table 1, compound 1mM, mean ± SD from Boltzman curve fitting

ΔTm at 1000 µM [1, 4] [°C] | SMILES | viability at 500 µM [2, 5] [%] | viability at 500 µM [3] [%] | further results
0.09 ± 0.08 | Cc1cccc(O)n1 [compound 19, 6‐methylpyridin‐2‐ol] | 103 ± 7.6 | 85.6 | –
0.08 ± 0.07 | Cc1csc(C(=O)O)c1 [compound 139, 4‐methylthiophene‐2‐carboxylic acid] | 70.9 ± 10.7 | 121 | –
1.1 ± 0.06 | Cc1ccc(C(=O)O)c(N)c1 [compound 196, 2‐amino‐4‐methylbenzoic acid] | 97.4 ± 4.1 | 36.7 | –
– | N#CCc1ccc(O)cc1 [compound 98, 2‐(4‐hydroxyphenyl)acetonitrile] | 92.9 ± 6.5 | 115 | ΔTm at 1000 µM ([1]; Supplementary Table 1, compound 1mM, mean ± SD from Boltzman curve fitting, read-out: Tb Ino1 Tm Shift [˚C]): 0.27 ± 0.05 °C
0.62 ± 0.05 | O=c1c2ccccc2oc2ncccc12 [compound 600, 5H‐chromeno[2,3‐b]pyridin‐5‐one] | 78.4 ± 11 | 126 | –
0.75 ± 0.08 | N#CCCNCc1ccco1 [compound 189, 3‐[(2‐furylmethyl)amino]propanenitrile] | 92.5 ± 7.2 | 84.4 | –
0.81 ± 0.08 | Cc1ccc[nH]c1=O [compound 17, 3‐methyl‐1,2‐dihydropyridin‐2‐one] | 106 ± 11.4 | 87.2 | –
0.39 ± 0.08 | OCc1ccc2occc2c1 [compound 168, 1‐benzofuran‐5‐ylmethanol] | 120 ± 11.4 | 75.1 | –
– | Cc1csc(N)c1C(N)=O [compound 239, 2-amino-4-methylthiophene-3-carboxamide] | 95.8 ± 9.3 | 69.8 | ΔTm at 1000 µM ([1]; read-out: TbIno1 Tm shift [°C]): 2.05 ± 0.05 °C; viability at 500 µM [2, 6]: 95.8 ± 9.3%; CC50 [2]: > 20 mM
– | CC(C)(C)OC(=O)Nc1cccs1 [compound 620, tert-butyl N-(2-thienyl)carbamate] | 71.3 ± 13.6 | 109 | ΔTm at 1000 µM ([1]; read-out: TbIno1 Tm shift [°C]): 2.08 ± 0.1 °C; viability at 500 µM [2, 6]: 71.3 ± 13.6%
0.34 ± 0.06 | c1ccc2c(c1)CCOC2 [compound 110, 3,4‐dihydro‐1H‐benzo[c]pyran] | 88.7 ± 19.2 | 114 | –
0.62 ± 0.08 | Nc1ccccc1-n1ccnc1 [compound 262, 2‐(1H‐imidazol‐1‐yl)aniline] | 66.5 ± 16.1 | 76 | –
– | CC1(C(=O)O)CC2C=CC1C2 (stereo not shown) [compound 205, 2‐methylbicyclo[2.2.1]hept‐5‐ene‐2‐carboxylic acid] | – | – | Tb Ino1 Tm Shift [˚C] [1, 7]: 0.08 ± 0.08 °C; HeLa Cells Alamar Blue [2]: 92.1 ± 17.2 percentage of controls; A549 Cells Alamar Blue [3]: 53.8 percentage of controls
0.73 ± 0.07 | O=C(O)CCc1c[nH]c2ccccc12 [compound 533, 3‐(1H‐indol‐3‐yl)propanoic acid] | 94.9 ± 6 | 67.2 | –
0.84 ± 0.09 | OCc1ccc2nccn2c1 [compound 171, imidazo[1,2‐a]pyridin‐6‐ylmethanol] | 94.1 ± 15.6 | 99.4 | –
0.43 ± 0.07 | NC(=O)c1ccccc1C(F)(F)F [compound 532, 2‐(trifluoromethyl)benzamide] | 88.3 ± 6.5 | 59.4 | –
– | CC(=O)Nc1ccc2c(c1)CCC2=O [compound 535, N1‐(1‐oxo‐2,3‐dihydro‐1H‐inden‐5‐yl)acetamide] | – | – | Tb Ino1 Tm Shift [˚C] [1, 7]: 0.21 ± 0.07 °C; HeLa Cells Alamar Blue [2]: 87.3 ± 4.6 percentage of controls; A549 Cells Alamar Blue [3]: 76.5 percentage of controls
– | Cc1csc(CC#N)n1 [compound 126, 2-(4-methyl-1,3-thiazol-2-yl)acetonitrile] | 69.7 ± 10.3 | 98.4 | ΔTm at 1000 µM ([1]; read-out: TbIno1 Tm shift [°C]): 2.1 ± 0.09 °C; viability at 500 µM [2, 6]: 69.7 ± 10.3%
0.16 ± 0.08 | OCc1ccc(-c2cccs2)cc1 [compound 544, (4‐thien‐2‐ylphenyl)methanol] | 74.7 ± 10.2 | 80 | –
0.06 ± 0.07 | Cc1cccc2c1NCCC2 [compound 166, 8‐methyl‐1,2,3,4‐tetrahydroquinoline] | 95.5 ± 1.6 | 76 | –
– | Oc1ccc2c(c1)OCO2 [compound 124, 1,3-benzodioxol-5-ol] | 39.7 ± 12.5 | 53.6 | ΔTm at 1000 µM ([1]; compound 1 mM, mean ± SD (n = 3), read-out: TbIno1 Tm shift [°C]): 2.1 ± 0.04 °C; viability at 500 µM [2, 6]: 39.7 ± 12.5%

ΔTm at 1000 µM [1, 4] [°C] | SMILES | viability at 500 µM [2, 5] [%] | viability at 500 µM [3] [%] | further results
1.12 ± 0.11 | OCc1ccc(N2CCOCC2)s1 [compound 618, (5‐morpholinothien‐2‐yl)methanol] | 70.4 ± 13.2 | 76.3 | –
– | OCc1cccc2[nH]ccc12 [compound 163, 1H-indol-4-ylmethanol] | 103 ± 8.7 | 47 | ΔTm at 1000 µM ([1]; read-out: TbIno1 Tm shift [°C]): 1.9 ± 0.06 °C; viability at 500 µM [2, 6]: 103 ± 8.7%; CC50 [2]: 2.5 ± 0.2 mM
0.52 ± 0.09 | Cc1noc(C)c1C#N [compound 53, 3,5‐dimethyl‐4‐isoxazolecarbonitrile] | 89.3 ± 2.8 | 84.5 | –
– | CC(=O)c1cc[nH]c1 [compound 20, 1-(1H-pyrrol-3-yl)ethan-1-one] | 102 ± 4.3 | 121 | ΔTm at 1000 µM ([1]; read-out: TbIno1 Tm shift [°C]): 1.88 ± 0.08 °C; viability at 500 µM [2, 6]: 102 ± 4.3%; CC50 [2]: > 5 mM
0.24 ± 0.07 | NC1CCSCC1 [compound 45, tetrahydrothiopyran‐4‐ylamine] | 88.6 ± 3.1 | 95.6 | –
– | CC(=O)c1cc(C)ccc1O [compound 184, 1‐(2‐hydroxy‐5‐methylphenyl)ethan‐1‐one] | – | – | Tb Ino1 Tm Shift [˚C] [1, 7]: 0.14 ± 0 °C; HeLa Cells Alamar Blue [2]: 91.7 ± 11.6 percentage of controls; A549 Cells Alamar Blue [3]: 53.1 percentage of controls
0.34 ± 0.06 | Nc1cccc(CN2CCCC2)c1 [compound 415, 3‐(pyrrolidin‐1‐ylmethyl)aniline] | 57.8 ± 4.5 | 107 | –
– | Cc1cc(C(=O)O)c2cc(F)ccc2n1 [compound 660, 6‐fluoro‐2‐methyl‐4‐quinolinecarboxylic acid] | – | – | Tb Ino1 Tm Shift [˚C] [1, 7]: 0.5 ± 0.06 °C; HeLa Cells Alamar Blue [2]: 103 ± 3.9 percentage of controls; A549 Cells Alamar Blue [3]: 146.9 percentage of controls
– | CSc1ccc(C(=O)O)s1 [compound 389, 5‐(methylthio)thiophene‐2‐carboxylic acid] | – | – | Tb Ino1 Tm Shift [˚C] [1, 7]: 0.43 ± 0.05 °C; HeLa Cells Alamar Blue [2]: 104.2 ± 16.4 percentage of controls; A549 Cells Alamar Blue [3]: 125.1 percentage of controls
0.31 ± 0.06 | NC(=O)c1ccc(F)c(Cl)c1 [compound 380, 3‐chloro‐4‐fluorobenzamide] | 92.2 ± 13.4 | 95.9 | –
0.01 ± 0.08 | N#Cc1ccccc1OC(F)(F)F [compound 509, 2‐(trifluoromethoxy)benzonitrile] | 106 ± 16.9 | 110 | –
– | CC1=NNC(=O)CC1 [compound 31, 6‐methyl‐2,3,4,5‐tetrahydropyridazin‐3‐one] | – | – | Tb Ino1 Tm Shift [˚C] [1, 7]: 0.22 ± 0.07 °C; HeLa Cells Alamar Blue [2]: 85.4 ± 6.1 percentage of controls; A549 Cells Alamar Blue [3]: 68.2 percentage of controls
0.05 ± 0.07 | CNCc1cccc(-c2ccncc2)c1 [compound 605, N‐methyl‐N‐(3‐pyridin‐4‐ylbenzyl)amine] | 21.3 ± 13.8 | 36.2 | –
– | Cc1nc(C(N)=S)c[nH]1 [compound 135, 2-methyl-1H-imidazole-4-carbothioamide] | 90.3 ± 10.9 | 102 | ΔTm at 1000 µM ([1]; read-out: TbIno1 Tm shift [°C]): 1.74 ± 0.09 °C; viability at 500 µM [2, 6]: 90.3 ± 10.9%
0.12 ± 0.11 | COC(=O)c1cccc2cc[nH]c12 [compound 396, methyl 1H‐indole‐7‐carboxylate] | 36.5 ± 11.9 | 164 | –
0.38 ± 0.09 | COC(=O)c1sccc1N [compound 241, methyl 3‐aminothiophene‐2‐carboxylate] | 94.5 ± 13 | 108 | –
0.12 ± 0.07 | CC(=O)Nc1ccc2c(c1)CCC2 [compound 400, N1‐(2,3‐dihydro‐1H‐inden‐5‐yl)acetamide] | 23.9 ± 13.6 | 99.3 | –
0.27 ± 0.06 | Cc1nc(N)ccc1C#N [compound 102, 6‐amino‐2‐methylnicotinonitrile] | 69.4 ± 12.4 | 76.1 | –
1.29 ± 0.14 | N#CCc1nc2ccccc2s1 [compound 387, 2‐(1,3‐benzothiazol‐2‐yl)acetonitrile] | 86.4 ± 10.4 | 81 | –
0.21 ± 0.06 | Nc1cccc(C(=O)c2ccccc2)c1 [compound 601, (3‐aminophenyl)(phenyl)methanone] | 89.2 ± 6.6 | 63.8 | –
